Like-named read-outs stand apart in the source and are kept apart here.
Legend:
[1] = test system: multiple myeloma cells (OPM-2); experiment: Cancer cell line proliferation assay, OPM-2; type: cell-based; conditions: Homo sapiens, OPM-2 cells, 72 hours, CellTiter Glo, n = 2
Experimental: (§1) The impact of the compound of Examples 7 and 14 on cancer cell proliferation was determined using patient derived NUT midline carcinoma cells (11060), multiple myeloma cells (OPM-2, DSMZ) and biphenotypic B myelomonocytic leukaemia cells (MV-4-11, ATCC) in a 72 hour proliferation assay. 11060 and OPM-2 cells were maintained in RPMI 1640 medium (Invitrogen) supplemented with 10% HI-FBS (Heat-Inactivated Fetal Bovine Serum, Hyclone) and 2 mM L-glutamine (Invitrogen) at 37° C. and an atmosphere of 5% CO2. MV-4-11 cells were maintained in IMDM media supplemented with 10% HI-FCS, 2 mM L-glutamine, 1× Non-essential amino acids (Invitrogen) and 1× sodium pyruvate (1 mM) (Invitrogen). Cells were diluted to 1.11×10^5 cells/mL and 90 μL/well plated into black sided, clear bottomed 96 well tissue culture plates (Corning), using growth media supplemented with penicillin/streptomycin (Invitrogen). Cells were incubated overnight at 37° C. and in one plate, ATP levels were measured using the CellTiter Glo assay (Promega) according to the manufacturer's instructions, to give a baseline reading (t=0). 3-fold serial dilutions of compounds ranging from 6 mM to 0.3 μM were prepared in 100% DMSO. The DMSO dilution series was diluted 20-fold in growth media before 10 μl of the resulting dilutions were added to the appropriate wells of the remaining cell plates. The final compound concentrations in the wells ranged from 30 μM to 1.5 nM in 0.5% DMSO. Cells were incubated with compounds for 72 hours before assaying for ATP content using CellTiter Glo (t=72). CellTiter Glo data from each t=72 time point was normalised to the relevant t=0 time point data, and expressed as % t=0.

[2] = test system: biphenotypic B myelomonocytic leukaemia cells (MV-4-11); experiment: Cancer cell line proliferation assay, MV-4-11; type: cell-based; conditions: Homo sapiens, MV4-11, MV-4-11 cells, 72 hours, CellTiter Glo, n = 3
Experimental: as §1

[3] = test system: NUT midline carcinoma cells (11060); experiment: Cancer cell line proliferation assay, 11060; type: cell-based; conditions: 11060 cells, 72 hours, CellTiter Glo, n = 3
Experimental: as §1

[4] = test system: Bromodomains BRD2, BRD3, BRD4 and BRDT; experiment: Fluoroligand affinity for mutated vs non-mutated bromodomain; design: species or system Human; conditions: single residue mutations in the acetyl lysine binding pocket
Experimental: The binding of the compounds of formulae (I)-(XVI) to Bromodomains BRD2, BRD3, BRD4 and BRDT was assessed using mutated proteins to detect differential binding to either Binding Domain 1 (BD1) or Binding Domain 2 (BD2) on the bromodomain. These single residue mutations in the acetyl lysine binding pocket greatly lower the affinity of the fluoroligand (Reference Compound X) for the mutated domain (>1000 fold selective for the non-mutated domain). Therefore in the final assay conditions, binding of the fluoroligand to the mutated domain cannot be detected and subsequently the assay is suitable to determine the binding of compounds to the single non-mutated bromodomain. […]

[5] = full curve fit, read-out: Cellular Proliferation: pIC50 (converted)
[6] = read-out: Cellular Proliferation: gpIC50 (converted)

SMILES | IC50 [1, 5] | IC50 [1, 6] | IC50 [2, 5] | IC50 [2, 6] | IC50 [3, 5] | IC50 [3, 6] | selectivity for the non-mutated domain over the mutated domain [4]
CC(=O)N1c2ccc(C(N)=O)cc2[C@H](Nc2ncc(Cl)cn2)[C@@H](C)[C@@H]1C [Example 7, (2S,3R,4R)-1-acetyl-4-((5-chloropyrimidin-2-yl)amino)-2,3-dimethyl-1,2,3,4-tetrahydroquinoline-6-carboxamide] | 100 nM | 50.1 nM | 200 nM | 158 nM | 631 nM | 398 nM | –
COc1ccc2c(c1)C(c1ccc(Cl)cc1)=N[C@@H](CC(=O)NCCCCCNC(=O)CCCCCC1(C)/C(=C/C=C/C=C/C3=[N+](CCCCS(=O)(=O)O)c4ccc(S(=O)(=O)O)cc4C3(C)C)N(CCCCS(=O)(=O)[O-])c3ccc(S(=O)(=O)O)cc31)c1nnc(C)n1-2 (stereo partly shown) [Reference Compound X] | – | – | – | – | – | – | > 1000 fold

Source: US10059699B2, “Tetrahydroquinoline derivatives as bromodomain inhibitors” (GlaxoSmithKline Intellectual Property (No.2) Limited, priority 2014, dated 2018)
